In patent US7795261B2, “Substituted 1-piperidin-4-yl-4-pyrrolidin-3-yl-piperazine derivatives and their use as neurokinin antagonists” (Janssen Pharmaceutica NV, priority 2002, dated 2010):

Experiments:
Type in all cases: cell-based
NK1 = NK1 (Homo sapiens, UniProt P25103); assay: Signal transduction (ST), intracellular Ca++ (FLIPR), NK1 antagonistic activity; conditions: read-out: pIC50 NK1 (converted)
Method in brief: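 Confluent cells loaded with 2 μM Fluo3 (1 h, 37 °C, probenecid), preincubated 20 min at RT with antagonist concentration range, then agonist added. Peak Ca++ transient read by FLIPR in Krebs buffer pH 7.4; IC50 by non-linear regression.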

NK2 = biological target: T1, NK2 (Homo sapiens, UniProt P21452); assay: Signal transduction (ST), intracellular Ca++ (FLIPR), NK2; conditions: read-out: pIC50 NK2 (converted)
T1 sequence (P21452 1-398): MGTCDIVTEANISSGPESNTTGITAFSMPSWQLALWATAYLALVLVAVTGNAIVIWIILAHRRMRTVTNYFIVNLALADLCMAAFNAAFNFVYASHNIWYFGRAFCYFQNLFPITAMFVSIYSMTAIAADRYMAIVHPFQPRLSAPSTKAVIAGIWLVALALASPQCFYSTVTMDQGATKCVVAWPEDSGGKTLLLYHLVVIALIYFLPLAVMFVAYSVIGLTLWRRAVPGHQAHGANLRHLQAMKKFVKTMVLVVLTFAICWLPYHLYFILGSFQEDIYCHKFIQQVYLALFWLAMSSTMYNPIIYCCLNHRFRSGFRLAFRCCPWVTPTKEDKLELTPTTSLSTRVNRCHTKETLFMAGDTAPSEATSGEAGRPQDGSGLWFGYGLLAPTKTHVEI

NK3 = biological target: T2, NK3 (Homo sapiens, UniProt P29371); assay: Signal transduction (ST), intracellular Ca++ (FLIPR), NK3; conditions: read-out: pIC50 NK3 (converted)
T2 sequence (P29371 1-465): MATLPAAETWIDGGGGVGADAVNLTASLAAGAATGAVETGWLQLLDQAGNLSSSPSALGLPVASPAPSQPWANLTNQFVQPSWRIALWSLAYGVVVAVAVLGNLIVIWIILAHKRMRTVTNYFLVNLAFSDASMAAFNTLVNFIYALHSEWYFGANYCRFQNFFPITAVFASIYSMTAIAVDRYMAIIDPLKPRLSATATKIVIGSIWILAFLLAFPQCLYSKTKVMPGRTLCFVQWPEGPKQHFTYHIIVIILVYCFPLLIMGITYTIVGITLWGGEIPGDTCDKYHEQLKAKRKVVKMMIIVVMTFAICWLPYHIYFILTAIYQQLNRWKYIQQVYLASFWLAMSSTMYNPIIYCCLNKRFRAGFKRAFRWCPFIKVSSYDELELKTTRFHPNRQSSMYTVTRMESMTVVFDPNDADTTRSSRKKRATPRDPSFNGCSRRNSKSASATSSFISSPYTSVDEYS

NK1, sequence (P25103 whole entry): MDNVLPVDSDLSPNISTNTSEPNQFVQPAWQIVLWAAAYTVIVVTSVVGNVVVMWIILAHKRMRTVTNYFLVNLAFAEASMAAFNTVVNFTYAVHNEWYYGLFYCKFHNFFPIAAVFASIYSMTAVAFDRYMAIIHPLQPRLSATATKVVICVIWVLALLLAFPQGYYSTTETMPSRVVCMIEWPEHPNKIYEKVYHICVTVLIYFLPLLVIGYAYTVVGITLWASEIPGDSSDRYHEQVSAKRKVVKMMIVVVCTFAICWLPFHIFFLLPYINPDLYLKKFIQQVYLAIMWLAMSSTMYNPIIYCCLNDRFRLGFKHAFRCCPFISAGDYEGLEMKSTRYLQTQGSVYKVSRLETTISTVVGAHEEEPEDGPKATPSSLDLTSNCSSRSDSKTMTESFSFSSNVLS

| Compound | IC50 (NK1) [nM] | IC50 (NK2) [nM] | IC50 (NK3) [nM] |
| --- | --- | --- | --- |
| O=C(C1CC1)N1CCC(N2CCN([C@H]3CCN(C(=O)c4cc(C(F)(F)F)cc(C(F)(F)F)c4)[C@H](Cc4ccccc4)C3)CC2)C1 (stereo partly drawn) [Compound 72] | 50.1 | 63.1 | 794 |
| O=C(c1cc(C(F)(F)F)cc(C(F)(F)F)c1)N1CC[C@H](N2CCN(C3CCN(S(=O)(=O)c4ccccc4)C3)CC2)C[C@H]1Cc1ccccc1 (stereo partly drawn) [Compound 75] | 25.1 | 1000 | 398 |
| O=C(c1cc(C(F)(F)F)cc(C(F)(F)F)c1)N1CC[C@H](N2CCN(C3CCN(S(=O)(=O)c4cccs4)C3)CC2)C[C@H]1Cc1ccccc1 (stereo partly drawn) [Compound 76] | 20 | 1260 | 200 |
| COC(=O)c1sccc1S(=O)(=O)N1CCC(N2CCN([C@H]3CCN(C(=O)c4cc(C(F)(F)F)cc(C(F)(F)F)c4)[C@H](Cc4ccccc4)C3)CC2)C1 (stereo partly drawn) [Compound 77] | 20 | 2510 | 501 |
| Cc1nc(S(=O)(=O)N2CCC(N3CCN([C@H]4CCN(C(=O)c5cc(C(F)(F)F)cc(C(F)(F)F)c5)[C@H](Cc5ccccc5)C4)CC3)C2)cn1C (stereo partly drawn) [Compound 78] | 31.6 | 398 | 251 |
| Cc1noc(C)c1S(=O)(=O)N1CCC(N2CCN(C3CCN(C(=O)c4cc(C(F)(F)F)cc(C(F)(F)F)c4)C(Cc4ccccc4)C3)CC2)C1 (stereo not drawn) [Compound 79] | 15.8 | 1000 | 501 |
| Cn1cccc1C(=O)CN1CCC(N2CCN([C@H]3CCN(C(=O)c4cc(C(F)(F)F)cc(C(F)(F)F)c4)[C@H](Cc4ccccc4)C3)CC2)C1 (stereo partly drawn) [Compound 103] | 15.8 | 5010 | 398 |
| O=C(C(NCc1ccccc1)c1ccccc1)N1CCC(N2CCN([C@H]3CCN(C(=O)c4cc(C(F)(F)F)cc(C(F)(F)F)c4)[C@H](Cc4ccccc4)C3)CC2)C1 (stereo partly drawn) [Compound 107] | 100 | 3160 | 631 |
| CC(C)(C)OC(=O)N1CCC[C@H]1C(=O)N1CCC(N2CCN([C@H]3CCN(C(=O)c4cc(C(F)(F)F)cc(C(F)(F)F)c4)[C@H](Cc4ccccc4)C3)CC2)C1 (stereo partly drawn) [Compound 115] | 20 | 7940 | 316 |
| CC(C)(C)C(=O)N1CCC(N2CCN(C3CCN(C(=O)c4cc(C(F)(F)F)cc(C(F)(F)F)c4)C(Cc4ccccc4)C3)CC2)C1 (stereo not drawn) [Compound 167] | 7.94 | 2000 | 631 |
| O=C(c1c(Cl)cccc1Cl)N1CCC(N2CCN([C@H]3CCN(C(=O)c4cc(C(F)(F)F)cc(C(F)(F)F)c4)[C@H](Cc4ccccc4)C3)CC2)C1 (stereo partly drawn) [Compound 169] | 12.6 | 2510 | 251 |
| O=C(c1cnccn1)N1CCC(N2CCN(C3CCN(C(=O)c4cc(C(F)(F)F)cc(C(F)(F)F)c4)C(Cc4ccc(Cl)c(Cl)c4)C3)CC2)C1 (stereo not drawn) [Compound 171] | 6.31 | 794 | 251 |
| O=C(C1CCOC1)N1CCC(N2CCN(C3CCN(C(=O)c4cc(C(F)(F)F)cc(C(F)(F)F)c4)C(Cc4ccc(Cl)c(Cl)c4)C3)CC2)C1 (stereo not drawn) [Compound 172] | 7.94 | 794 | 398 |
| O=C(c1ccoc1)N1CCC(N2CCN(C3CCN(C(=O)c4cc(C(F)(F)F)cc(C(F)(F)F)c4)C(Cc4ccc(Cl)c(Cl)c4)C3)CC2)C1 (stereo not drawn) [Compound 173] | 20 | 794 | 251 |
| O=C(c1ccccc1F)N1CCC(N2CCN(C3CCN(C(=O)c4cc(C(F)(F)F)cc(C(F)(F)F)c4)C(Cc4ccc(Cl)c(Cl)c4)C3)CC2)C1 (stereo not drawn) [Compound 174] | 20 | 2000 | 1000 |
| O=C(c1cccs1)N1CCC(N2CCN(C3CCN(C(=O)c4cc(C(F)(F)F)cc(C(F)(F)F)c4)C(Cc4ccc(Cl)c(Cl)c4)C3)CC2)C1 (stereo not drawn) [Compound 175] | 25.1 | 1000 | 398 |
| CC(C(=O)N1CCC(N2CCN(C3CCN(C(=O)c4cc(C(F)(F)F)cc(C(F)(F)F)c4)C(Cc4ccc(Cl)c(Cl)c4)C3)CC2)C1)c1ccccc1 (stereo not drawn) [Compound 176] | 20 | 2510 | 1000 |

| Compound | IC50 (NK1) [nM] | IC50 (NK2) [nM] | IC50 (NK3) [nM] |
| --- | --- | --- | --- |
| O=C(C1CCCCC1)N1CCC(N2CCN([C@H]3CCN(C(=O)c4cc(C(F)(F)F)cc(C(F)(F)F)c4)[C@H](Cc4ccccc4)C3)CC2)C1 (stereo partly drawn) [Compound 178] | 10 | 2000 | 251 |
| CC(C)(C)OC(=O)NC(C)(C)C(=O)N1CCC(N2CCN(C3CCN(C(=O)c4cc(C(F)(F)F)cc(C(F)(F)F)c4)C(Cc4ccccc4)C3)CC2)C1 (stereo not drawn) [Compound 205] | 10 | 3160 | 251 |
| CC(C)(C)OC(=O)N1CCCCC1C(=O)N1CCC(N2CCN(C3CCN(C(=O)c4cc(C(F)(F)F)cc(C(F)(F)F)c4)C(Cc4ccccc4)C3)CC2)C1 (stereo not drawn) [Compound 206] | 10 | 794 | 251 |
| O=C(c1ccoc1)N1CCC(N2CCN(C3CCN(C(=O)c4cc(C(F)(F)F)cc(C(F)(F)F)c4)C(Cc4ccc(F)c(F)c4)C3)CC2)C1 (stereo not drawn) [Compound 226] | 6.31 | 1260 | 501 |
| O=C(c1ccoc1)N1CC[C@H](N2CCN([C@@H]3CCN(C(=O)c4cc(C(F)(F)F)cc(C(F)(F)F)c4)[C@@H](Cc4ccc(Cl)c(Cl)c4)C3)CC2)C1 [Compound 250] | 100 | 6310 | 5010 |
| O=C(c1ccsc1)N1CC[C@H](N2CCN([C@@H]3CCN(C(=O)c4cc(C(F)(F)F)cc(C(F)(F)F)c4)[C@@H](Cc4ccc(Cl)c(Cl)c4)C3)CC2)C1 [Compound 251] | 50.1 | 6310 | 5010 |
| O=C(c1ccccc1Cl)N1CCC(N2CCN(C3CCN(C(=O)c4cc(C(F)(F)F)cc(C(F)(F)F)c4)C(Cc4ccc(F)c(F)c4)C3)CC2)C1 (stereo not drawn) [Compound 255] | 15.8 | 1260 | 398 |
| O=C(c1c(Cl)cccc1Cl)N1CCC(N2CCN(C3CCN(C(=O)c4cc(C(F)(F)F)cc(C(F)(F)F)c4)C(Cc4ccc(F)c(F)c4)C3)CC2)C1 (stereo not drawn) [Compound 256] | 25.1 | 1580 | 398 |
| CC(C)(C)OC(=O)N1CC[C@@H](N2CCN([C@H]3CCN(C(=O)c4cc(C(F)(F)F)cc(C(F)(F)F)c4)[C@H](Cc4ccc(Cl)c(Cl)c4)C3)CC2)C1 [Compound 261] | 31.6 | 1260 | 501 |
| O=C(C1CC1)N1CC[C@@H](N2CCN([C@H]3CCN(C(=O)c4cc(C(F)(F)F)cc(C(F)(F)F)c4)[C@H](Cc4ccc(Cl)c(Cl)c4)C3)CC2)C1 [Compound 263] | 6.31 | 794 | 316 |
| O=C(c1cccs1)N1CC[C@@H](N2CCN([C@H]3CCN(C(=O)c4cc(C(F)(F)F)cc(C(F)(F)F)c4)[C@H](Cc4ccc(Cl)c(Cl)c4)C3)CC2)C1 [Compound 264] | 12.6 | 1580 | 200 |
| O=C(c1c(Cl)cccc1Cl)N1CC[C@@H](N2CCN([C@H]3CCN(C(=O)c4cc(C(F)(F)F)cc(C(F)(F)F)c4)[C@H](Cc4ccc(Cl)c(Cl)c4)C3)CC2)C1 [Compound 265] | 20 | 1580 | 158 |
| O=C(c1ccccc1Cl)N1CC[C@@H](N2CCN([C@H]3CCN(C(=O)c4cc(C(F)(F)F)cc(C(F)(F)F)c4)[C@H](Cc4ccc(Cl)c(Cl)c4)C3)CC2)C1 [Compound 266] | 7.94 | 1000 | 316 |
| O=C(c1ccco1)N1CC[C@@H](N2CCN([C@H]3CCN(C(=O)c4cc(C(F)(F)F)cc(C(F)(F)F)c4)[C@H](Cc4ccc(Cl)c(Cl)c4)C3)CC2)C1 [Compound 267] | 7.94 | 631 | 200 |
| O=C(c1cc(C(F)(F)F)cc(C(F)(F)F)c1)N1CC[C@H](N2CCN([C@@H]3CCN(S(=O)(=O)c4cccs4)C3)CC2)C[C@H]1Cc1ccc(Cl)c(Cl)c1 [Compound 268] | 20 | 251 | 1000 |
| N#Cc1ccc(C(=O)N2CCC(N3CCN([C@H]4CCN(C(=O)c5cc(C(F)(F)F)cc(C(F)(F)F)c5)[C@H](Cc5ccccc5)C4)CC3)C2)cc1 (stereo partly drawn) [Compound 271] | 6.31 | 5010 | 2000 |
| O=C(C(O)c1ccccc1)N1CCC(N2CCN([C@H]3CCN(C(=O)c4cc(C(F)(F)F)cc(C(F)(F)F)c4)[C@H](Cc4ccccc4)C3)CC2)C1 (stereo partly drawn) [Compound 275] | 10 | 2510 | 5010 |
